PubChem BioAssay AID248 (DTP/NCI, 2004)
Inconclusive results and toxic doses are left out. No stated cut-off is given here; in the data, active means T/C of 150% or more; inactive means T/C below 125%.

Test system: L1210 leukemia ip in BDF1 mice, survival T/C
Assay: NCI In Vivo Anticancer Drug Screen. Data for tumor model L1210 Leukemia (intraperitoneal) in B6D2F1 (BDF1) mice
Conditions: endpoint: mean survival time, higher = longer survival
Procedure, shortened: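 Antitumor effect is assessed in tumor-bearing animals. Survival in the compound arm is compared with a vehicle-dosed control arm and expressed as their quotient.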

[1] = dose: 50.0 mg/kg/injection, schedule: Q01DX001 (ip), vehicle: carboxymethylcellulose (CMC)
[2] = dose: 100.0 mg/kg/injection, schedule: Q01DX001 (ip), vehicle: carboxymethylcellulose (CMC)
[3] = dose: 200.0 mg/kg/injection, schedule: Q01DX001 (ip), vehicle: carboxymethylcellulose (CMC)
[4] = dose: 400.0 mg/kg/injection, schedule: Q01DX001 (ip), vehicle: carboxymethylcellulose (CMC)
[5] = dose: 100.0 mg/kg/injection, schedule: Q01DX001 (ip), vehicle: saline
[6] = dose: 200.0 mg/kg/injection, schedule: Q01DX001 (ip), vehicle: saline
[7] = dose: 400.0 mg/kg/injection, schedule: Q01DX001 (ip), vehicle: saline
[8] = dose: 50.0 mg/kg/injection, schedule: Q04DX003 (ip), vehicle: Klucel (hydroxypropylcellulose) (HPC)
[9] = dose: 100.0 mg/kg/injection, schedule: Q04DX003 (ip), vehicle: Klucel (hydroxypropylcellulose) (HPC)
[10] = dose: 200.0 mg/kg/injection, schedule: Q04DX003 (ip), vehicle: Klucel (hydroxypropylcellulose) (HPC)
[11] = dose: 400.0 mg/kg/injection, schedule: Q04DX003 (ip), vehicle: Klucel (hydroxypropylcellulose) (HPC)
[12] = dose: 25.0 mg/kg/injection, schedule: Q04DX002 (ip), vehicle: Klucel (hydroxypropylcellulose) (HPC)
[13] = dose: 100.0 mg/kg/injection, schedule: Q01DX009 (ip), vehicle: Klucel (hydroxypropylcellulose) (HPC)
[14] = dose: 200.0 mg/kg/injection, schedule: Q01DX009 (ip), vehicle: Klucel (hydroxypropylcellulose) (HPC)
[15] = dose: 400.0 mg/kg/injection, schedule: Q01DX009 (ip), vehicle: Klucel (hydroxypropylcellulose) (HPC)
[16] = dose: 100.0 mg/kg/injection, schedule: Q04DX002 (ip), vehicle: Klucel (hydroxypropylcellulose) (HPC)
[17] = dose: 100.0 mg/kg/injection, schedule: Q01DX009 (ip), vehicle: saline with Tween-80
[18] = dose: 200.0 mg/kg/injection, schedule: Q01DX009 (ip), vehicle: saline with Tween-80
[19] = dose: 75.0 mg/kg/injection, schedule: Q01DX001 (ip), vehicle: saline
[20] = dose: 50.0 mg/kg/injection, schedule: Q04DX002 (ip), vehicle: Klucel (hydroxypropylcellulose) (HPC)
[21] = dose: 50.0 mg/kg/injection, schedule: Q01DX009 (ip), vehicle: saline with Tween-80
[22] = dose: 100.0 mg/kg/injection, schedule: Q04DX003 (ip), vehicle: saline with Tween-80
[23] = dose: 200.0 mg/kg/injection, schedule: Q04DX003 (ip), vehicle: saline with Tween-80

Measured: T/C

CC1Cc2c(Cl)cc(C(=O)NC(Cc3ccccc3)C(=O)O)c(O)c2C(=O)O1 (configuration not stated)
inactive: dose: 0.12 mg/kg/injection, schedule: Q01DX009 (ip), vehicle: saline with Tween-80 95 % of control | dose: 0.25 mg/kg/injection, schedule: Q01DX009 (ip), vehicle: saline with Tween-80 93 % of control | dose: 0.5 mg/kg/injection, schedule: Q01DX009 (ip), vehicle: saline with Tween-80 96 % of control | dose: 1.0 mg/kg/injection, schedule: Q01DX009 (ip), vehicle: saline with Tween-80 96 % of control | [1] 100 % of control | [2] 107 % of control

O=C(CF)[O][Sb]([O]C(=O)CF)([c]1ccccc1)([c]1ccccc1)[c]1ccccc1
inactive: dose: 5.0 mg/kg/injection, schedule: Q04DX003 (ip), vehicle: saline with Tween-80 92 % of control | dose: 10.0 mg/kg/injection, schedule: Q04DX003 (ip), vehicle: saline with Tween-80 101 % of control | dose: 20.0 mg/kg/injection, schedule: Q04DX003 (ip), vehicle: saline with Tween-80 106 % of control

CCC1CN1P1(=O)OCC(C)(N)CO1 (configuration not stated)
inactive: [2] 104 % of control | [3] 101 % of control | [4] 101 % of control

CCCNC(=O)Nc1ccc(Cl)c(Cl)c1
inactive: [5] 100 % of control | [6] 93 % of control | [7] 92 % of control

O=C(c1ccccc1Br)C1C(c2ccccc2)N1C1CCCCC1 (configuration not stated)
inactive: [8] 102 % of control | [9] 102 % of control | [10] 98 % of control | [11] 93 % of control

Cc1ccc(CNC2=C(Cl)C(=O)c3ccccc3C2=O)cc1C
inactive: dose: 12.5 mg/kg/injection, schedule: Q04DX002 (ip), vehicle: Klucel (hydroxypropylcellulose) (HPC) 92 % of control | [12] 87 % of control

COC(=O)c1cc(C2OCC3OC(C)(C)OC32)[nH]n1 (configuration not stated)
inactive: dose: 100.0 mg/kg/injection, schedule: Q01DX005 (ip), vehicle: saline 96 % of control | dose: 200.0 mg/kg/injection, schedule: Q01DX005 (ip), vehicle: saline 100 % of control

CC(C)(CO)N=Cc1ccccc1O.CC(C)(CO)N=Cc1ccccc1O.[Cu].[Cu]
inactive: dose: 75.0 mg/kg/injection, schedule: Q01DX001 (ip), vehicle: other 98 % of control | dose: 150.0 mg/kg/injection, schedule: Q01DX001 (ip), vehicle: other 96 % of control | dose: 300.0 mg/kg/injection, schedule: Q01DX001 (ip), vehicle: other 98 % of control

CCOC(=O)C1=CC(=O)C(C(=O)OCC)=CC1=O
inactive: [2] 98 % of control | [3] 98 % of control | [4] 104 % of control

CC/C=N/Nc1ccnc(SCc2ccccc2)n1
inactive: dose: 100.0 mg/kg/injection, schedule: Q04DX003 (ip), vehicle: gum acacia 103 % of control | dose: 200.0 mg/kg/injection, schedule: Q04DX003 (ip), vehicle: gum acacia 97 % of control | dose: 400.0 mg/kg/injection, schedule: Q04DX003 (ip), vehicle: gum acacia 94 % of control

O=C(O)c1cc(Cl)c(Cl)s1
inactive: dose: 25.0 mg/kg/injection, schedule: Q04DX003 (ip), vehicle: Klucel (hydroxypropylcellulose) (HPC) 101 % of control | [8] 100 % of control | [9] 103 % of control

Cc1cc(C)c2c(c1)CCc1cc(C)cc(C)c1-2
inactive: [13] 100 % of control | [9] 93 % of control | [14] 93 % of control | [10] 93 % of control | [15] 100 % of control | [11] 93 % of control

CC(C)/C=N/N(C)C(=O)Nc1cccc2ccccc12
inactive: [1] 97 % of control | [2] 94 % of control | [3] 94 % of control | [4] 90 % of control

Cc1ccc2ccccc2c1
inactive: [16] 91 % of control | dose: 200.0 mg/kg/injection, schedule: Q04DX002 (ip), vehicle: Klucel (hydroxypropylcellulose) (HPC) 95 % of control

CC(C)CC1NC(C)(C)CO1 (configuration not stated)
inactive: dose: 75.0 mg/kg/injection, schedule: Q01DX001 (ip), vehicle: carboxymethylcellulose (CMC) 102 % of control | dose: 150.0 mg/kg/injection, schedule: Q01DX001 (ip), vehicle: carboxymethylcellulose (CMC) 95 % of control | dose: 300.0 mg/kg/injection, schedule: Q01DX001 (ip), vehicle: carboxymethylcellulose (CMC) 100 % of control

Cc1ccc(S(=O)(=O)Nc2cccc3cc(Cl)ccc23)cc1
inactive: dose: 100.0 mg/kg/injection, schedule: Q04DX003 (ip), vehicle: acetone 94 % of control | dose: 200.0 mg/kg/injection, schedule: Q04DX003 (ip), vehicle: acetone 105 % of control | dose: 400.0 mg/kg/injection, schedule: Q04DX003 (ip), vehicle: acetone 91 % of control

CC(=O)Nc1ccc(/C=N/NC(=O)CC2CCCCC2)cc1
inactive: [17] 88 % of control | [18] 93 % of control | dose: 400.0 mg/kg/injection, schedule: Q01DX009 (ip), vehicle: saline with Tween-80 100 % of control

c1ccc(C[P+](Cc2ccccc2)(c2ccccc2)c2ccccc2)cc1
inactive: [19] 94 % of control

O=C(C=C(C(F)(F)F)C(F)(F)F)c1cccc(S(=O)(=O)F)c1
inactive: dose: 3.13 mg/kg/injection, schedule: Q01DX009 (ip), vehicle: saline with Tween-80 96 % of control | dose: 6.25 mg/kg/injection, schedule: Q01DX009 (ip), vehicle: saline with Tween-80 100 % of control | dose: 12.5 mg/kg/injection, schedule: Q01DX009 (ip), vehicle: saline with Tween-80 95 % of control

CN(C(=O)Nc1ccc(Cl)cc1[N+](=O)[O-])C1CCCCC1
inactive: [13] 92 % of control | [14] 94 % of control | [15] 97 % of control

Cc1cc(S(=O)(=O)F)ccc1O
inactive: [13] 106 % of control | [14] 103 % of control | [15] 98 % of control

CCN(CC)CC(=O)NCC(CCN1CCCC1)(CC(C)C)c1cccc2ccccc12 (configuration not stated)
inactive: dose: 100.0 mg/kg/injection, schedule: Q04DX002 (ip), vehicle: saline 97 % of control | dose: 200.0 mg/kg/injection, schedule: Q04DX002 (ip), vehicle: saline 94 % of control

COc1ccc(OC)c(-c2csc(=O)s2)c1
inactive: [20] 97 % of control | [16] 111 % of control

CC(CC(=O)O)Nc1ccc(Cl)c(Cl)c1 (configuration not stated)
inactive: dose: 25.0 mg/kg/injection, schedule: Q01DX009 (ip), vehicle: saline with Tween-80 100 % of control | [21] 102 % of control | [17] 94 % of control | [22] 107 % of control | [23] 96 % of control

CCOC(=O)CCCN1CCC=C(C#N)C1
inactive: [19] 102 % of control | dose: 300.0 mg/kg/injection, schedule: Q01DX001 (ip), vehicle: saline 107 % of control

CCC#CC(O)(C(=O)OCC)C1CCCC1 (configuration not stated)
inactive: [5] 105 % of control | [6] 105 % of control | [7] 111 % of control

CC(C)=NNCCO
inactive: dose: 12.5 mg/kg/injection, schedule: Q01DX001 (ip), vehicle: saline 103 % of control | dose: 25.0 mg/kg/injection, schedule: Q01DX001 (ip), vehicle: saline 103 % of control | dose: 50.0 mg/kg/injection, schedule: Q01DX001 (ip), vehicle: saline 100 % of control

O=c1c(-c2ccccc2)coc2ccccc12
inactive: [22] 97 % of control | [23] 92 % of control | dose: 400.0 mg/kg/injection, schedule: Q04DX003 (ip), vehicle: saline with Tween-80 90 % of control

CC(=O)OC1CC2C=CC1C2 (configuration not stated) (tested in a mixture with another compound)
inactive: [21] 89 % of control | [17] 89 % of control | [18] 92 % of control

CC(=C=CC(c1ccccc1)(c1ccccc1)c1ccccc1)CC(c1ccccc1)(c1ccccc1)c1ccccc1
inactive: [9] 96 % of control | [10] 95 % of control | [11] 95 % of control

CC(=O)Nc1nc(C)c(CCC(C)C)c(Cl)n1
inactive: [12] 104 % of control | [20] 93 % of control | [16] 105 % of control

NCCSCCN
inactive: [13] 104 % of control | [14] 100 % of control
